Data taken from PMC8412899 (ACS Omega, 2021).
pKi: −log10 of the molar value.

target: T1, MCL-1 (Homo sapiens, UniProt Q07820); assay: FP; type: binding; settings: not given
T1 sequence (Q07820 whole entry): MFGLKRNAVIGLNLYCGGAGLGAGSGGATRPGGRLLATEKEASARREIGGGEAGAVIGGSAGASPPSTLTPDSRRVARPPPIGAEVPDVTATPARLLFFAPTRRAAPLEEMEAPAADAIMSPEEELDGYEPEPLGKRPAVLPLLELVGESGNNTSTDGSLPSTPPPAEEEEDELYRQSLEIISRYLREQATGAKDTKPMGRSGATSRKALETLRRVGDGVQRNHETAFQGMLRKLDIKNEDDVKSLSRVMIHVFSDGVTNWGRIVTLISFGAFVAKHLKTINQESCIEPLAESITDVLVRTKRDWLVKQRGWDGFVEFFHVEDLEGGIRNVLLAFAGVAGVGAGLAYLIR

For `CCc1c(-c2cccc(Cl)c2C)c2c(N[C@H](Cc3ccccc3)C(=O)O)ncnc2n1CCC1CCCC1` (single isomer, unassigned) [Compound 9b, N-[(5Sa)-5-(3-Chloro-2-methylphenyl)-7-(2-cyclopentylethyl)-6-ethyl-7H-pyrrolo[2,3-d]pyrimidin-4-yl]-D-phenylalanine], which “FP MCL-1 Ki” value is on record?
Its value is “submicromolar”.

same assay, conditions: @50 μM, highest tested dose

Which “FP MCL-1 inhibition at 50 μM” value does the source give for `CCc1c(-c2cccc(Cl)c2C)c2c(N[C@H](Cc3ccccc3)C(=O)O)ncnc2n1C(C)C` [Compound 6b, N-[(5Sa)-5-(3-Chloro-2-methylphenyl)-6-ethyl-7-(propan-2-yl)-7H-pyrrolo[2,3-d]pyrimidin-4-yl]-D-phenylalanine] here?
Its value is 78%@50 μM.

same assay, conditions: FP MCL-1 Ki

How did the pKi turn out when `CC#CCn1c(CC)c(-c2cccc(Cl)c2C)c2c(N[C@H](Cc3ccccc3)C(=O)O)ncnc21` (single isomer, unassigned) [Compound 7b, N-[7-(But-2-yn-1-yl)-(5Sa)-5-(3-chloro-2-methylphenyl)-6-ethyl-7H-pyrrolo[2,3-d]pyrimidin-4-yl]-D-phenylalanine] was run?
Its pKi is 6.48.

`CCc1c(-c2cccc(Cl)c2C)c2c(N[C@H](Cc3ccccc3)C(=O)O)ncnc2n1CCC1CCCC1` (single isomer, unassigned) [Compound 9b, N-[(5Sa)-5-(3-Chloro-2-methylphenyl)-7-(2-cyclopentylethyl)-6-ethyl-7H-pyrrolo[2,3-d]pyrimidin-4-yl]-D-phenylalanine] was tested. Which pKi did it give?
The pKi was 6.10.

`CCc1c(-c2cccc(Cl)c2C)c2c(N[C@H](Cc3ccccc3)C(=O)O)ncnc2n1Cc1cccc2ccccc12` (single isomer, unassigned) [Compound 10b, N-[(5Sa)-5-(3-Chloro-2-methylphenyl)-6-ethyl-7-(naphthalen-1-ylmethyl)-7H-pyrrolo[2,3-d]pyrimidin-4-yl]-D-phenylalanine] was tested. Which pKi did it give?
The pKi was 6.59.

`CCc1c(-c2cccc(Cl)c2C)c2c(N[C@H](Cc3ccccc3)C(=O)O)ncnc2n1Cc1ccccc1` (single isomer, unassigned) [Compound 8a, N-[7-Benzyl-(5Ra)-5-(3-chloro-2-methylphenyl)-6-ethyl-7H-pyrrolo[2,3-d]pyrimidin-4-yl]-D-phenylalanine] was tested. Which pKi did it give?
Its pKi is 5.19.

`C=CCn1c(Br)c(-c2cccc(Cl)c2C)c2c(N[C@H](Cc3ccccc3)C(=O)O)ncnc21` (single isomer, unassigned) [Compound 4a, N-[6-Bromo-(5Sa)-5-(3-chloro-2-methylphenyl)-7-(prop-2-en-1-yl)-7H-pyrrolo[2,3-d]pyrimidin-4-yl]-D-phenylalanine] was tested. Which pKi did it give?
Its pKi is 5.60.

`COc1ccccc1C[C@@H](Oc1cccc2oc(-c3ccc(F)cc3)c(-c3ccc(OCCN4CCN(C)CC4)c(Cl)c3C)c12)C(=O)O` [Compound 14, (2R)-2-{[(3Sa)-3-{3-Chloro-2-methyl-4-[2-(4-methylpiperazin-1-yl)ethoxy]phenyl}-2-(4-fluorophenyl)-1-benzofuran-4-yl]oxy}-3-(2-methoxyphenyl)propanoic Acid] was tested. Which pKi did it give?
The pKi was 6.09.

With `CC#CCn1c(CC)c(-c2cccc(Cl)c2C)c2c(N[C@H](Cc3ccccc3)C(=O)O)ncnc21` (single isomer, unassigned) [Compound 7a, N-[7-(But-2-yn-1-yl)-(5Ra)-5-(3-chloro-2-methylphenyl)-6-ethyl-7H-pyrrolo[2,3-d]pyrimidin-4-yl]-D-phenylalanine] as the compound, how does the pKi read?
Its pKi is 5.23.

`Cc1c(Cl)cccc1-c1c2n(c3ncnc(N[C@H](Cc4ccccc4)C(=O)O)c13)CCCC2` (single isomer, unassigned) [Compound 12b, N-[(5Sa)-5-(3-Chloro-2-methylphenyl)-6,7,8,9-tetrahydropyrimido[5,4-b]indolizin-4-yl]-D-phenylalanine] was tested. Which pKi did it give?
The pKi was 5.23.

How did the pKi turn out when `COc1ccccc1C[C@@H](Oc1cccc2cc(-c3ccc(F)cc3)n(-c3ccc(OCCN4CCN(C)CC4)c(Cl)c3C)c12)C(=O)O` [Compound 15, (2R)-2-{[(1Ra)-1-{3-Chloro-2-methyl-4-[2-(4-methylpiperazin-1-yl)ethoxy]phenyl}-2-(4-fluorophenyl)-1H-indol-7-yl]oxy}-3-(2-methoxyphenyl)propanoic Acid] was run?
Its pKi is 7.33.

`Cc1c(Cl)cccc1-c1c2n(c3ncnc(N[C@H](Cc4ccccc4)C(=O)O)c13)CCCC2` (single isomer, unassigned) [Compound 12a, N-[(5Ra)-5-(3-Chloro-2-methylphenyl)-6,7,8,9-tetrahydropyrimido[5,4-b]indolizin-4-yl]-D-phenylalanine] was tested. Which pKi did it give?
The pKi was 4.96.

With `C=CCn1c(CC)c(-c2cccc(Cl)c2C)c2c(N[C@H](Cc3ccccc3)C(=O)O)ncnc21` (single isomer, unassigned) [Compound 3b, N-[(5Sa)-5-(3-Chloro-2-methylphenyl)-6-ethyl-7-(prop-2-en-1-yl)-7H-pyrrolo[2,3-d]pyrimidin-4-yl]-D-phenylalanine] as the compound, how does the pKi read?
Its pKi is 5.04.

With `CCc1c(-c2cccc(Cl)c2C)c2c(N[C@H](Cc3ccccc3)C(=O)O)ncnc2n1Cc1ccccc1` (single isomer, unassigned) [Compound 8b, N-[7-Benzyl-(5Sa)-5-(3-chloro-2-methylphenyl)-6-ethyl-7H-pyrrolo[2,3-d]pyrimidin-4-yl]-D-phenylalanine] as the compound, how does the pKi read?
The pKi was 6.28.

`CCc1c(-c2cccc(Cl)c2C)c2c(N[C@H](Cc3ccccc3)C(=O)O)ncnc2n1CCC1CCCC1` (single isomer, unassigned) [Compound 9a, N-[(5Ra)-5-(3-Chloro-2-methylphenyl)-7-(2-cyclopentylethyl)-6-ethyl-7H-pyrrolo[2,3-d]pyrimidin-4-yl]-D-phenylalanine] was tested. Which pKi did it give?
Its pKi is 5.46.

How did the pKi turn out when `C=CCn1c(CC)c(-c2cccc(Cl)c2C)c2c(N[C@H](Cc3ccccc3)C(=O)O)ncnc21` (single isomer, unassigned) [Compound 3a, N-[(5Ra)-5-(3-Chloro-2-methylphenyl)-6-ethyl-7-(prop-2-en-1-yl)-7H-pyrrolo[2,3-d]pyrimidin-4-yl]-D-phenylalanine] was run?
Its pKi is 4.74.

With `CCc1c(-c2cccc(Cl)c2C)c2c(N[C@H](Cc3ccccc3)C(=O)O)ncnc2n1Cc1cccc2ccccc12` (single isomer, unassigned) [Compound 10a, N-[(5Ra)-5-(3-Chloro-2-methylphenyl)-6-ethyl-7-(naphthalen-1-ylmethyl)-7H-pyrrolo[2,3-d]pyrimidin-4-yl]-D-Phenylalanine] as the compound, how does the pKi read?
The pKi was 5.46.

How did the pKi turn out when `CCc1c(-c2cccc(Cl)c2C)c2c(N[C@H](Cc3ccccc3)C(=O)O)ncnc2n1CC(F)(F)F` (single isomer, unassigned) [Compound 5b, N-[(5Sa)-5-(3-Chloro-2-methylphenyl)-6-ethyl-7-(2,2,2-trifluoroethyl)-7H-pyrrolo[2,3-d]pyrimidin-4-yl]-D-phenylalanine] was run?
The pKi was 5.07.

With `COc1ccccc1C[C@@H](Oc1ncnc2sc(-c3ccc(F)cc3)c(-c3ccc(OCCN4CCN(C)CC4)c(Cl)c3C)c12)C(=O)O` [Compound 13, (2R)-2-{[(5Sa)-5-{3-Chloro-2-methyl-4-[2-(4-methylpiperazin-1-yl)ethoxy]phenyl}-6-(4-fluorophenyl)thieno[2,3-d]pyrimidin-4-yl]oxy}-3-(2-methoxyphenyl)propanoic Acid] as the compound, how does the pKi read?
Its pKi is 7.85.

same assay, conditions: less active form compared to more active isomer 3b

How did the “fold less potent (FP affinity)” value turn out when `C=CCn1c(CC)c(-c2cccc(Cl)c2C)c2c(N[C@H](Cc3ccccc3)C(=O)O)ncnc21` (single isomer, unassigned) [Compound 3a, N-[(5Ra)-5-(3-Chloro-2-methylphenyl)-6-ethyl-7-(prop-2-en-1-yl)-7H-pyrrolo[2,3-d]pyrimidin-4-yl]-D-phenylalanine] was run?
The value was 2 fold.

same assay, conditions: read-out: FP MCL-1 inhibition at 50 μM, @50 μM, highest tested dose

How did the inhibition at 50 µM turn out when `CCc1c(-c2cccc(Cl)c2C)c2c(N[C@H](Cc3ccccc3)C(=O)O)ncnc2n1CC(F)(F)F` (single isomer, unassigned) [Compound 5a, N-[(5Ra)-5-(3-Chloro-2-methylphenyl)-6-ethyl-7-(2,2,2-trifluoroethyl)-7H-pyrrolo[2,3-d]pyrimidin-4-yl]-D-phenylalanine] was run?
The inhibition at 50 µM was 63%.

How did the inhibition at 50 µM turn out when `CCc1c(-c2cccc(Cl)c2C)c2c(N[C@H](Cc3ccccc3)C(=O)O)ncnc2n1C(C)C` [Compound 6a, N-[(5Ra)-5-(3-Chloro-2-methylphenyl)-6-ethyl-7-(propan-2-yl)-7H-pyrrolo[2,3-d]pyrimidin-4-yl]-D-phenylalanine] was run?
Its inhibition at 50 µM is 67%.

With `CCc1c(-c2cccc(Cl)c2C)c2c(N[C@H](Cc3ccccc3)C(=O)O)ncnc2n1C` (single isomer, unassigned) [Compound 2a, N-[(5Ra)-5-(3-Chloro-2-methylphenyl)-6-ethyl-7-methyl-7H-pyrrolo[2,3-d]pyrimidin-4-yl]-D-phenylalanine] as the compound, how does the inhibition at 50 µM read?
The inhibition at 50 µM was 65%.

With `C=CCn1c(Br)c(-c2cccc(Cl)c2C)c2c(N[C@H](Cc3ccccc3)C(=O)O)ncnc21` (single isomer, unassigned) [Compound 4b, N-[6-Bromo-(5Ra)-5-(3-chloro-2-methylphenyl)-7-(prop-2-en-1-yl)-7H-pyrrolo[2,3-d]pyrimidin-4-yl]-D-phenylalanine] as the compound, how does the inhibition at 50 µM read?
The inhibition at 50 µM was 66%.

target: T1, MCL-1; assay: QA; type: binding; settings: QA MCL-1 Ki

How did the pKi turn out when `COc1ccccc1-c1nccc(COc2ccccc2C[C@@H](Nc2ncnc3sc(-c4ccc(F)cc4)c(-c4ccc(OCCN5CCN(C)CC5)c(Cl)c4C)c23)C(=O)O)n1` [Compound 16b, N-[(5Sa)-5-{3-Chloro-2-methyl-4-[2-(4-methylpiperazin-1-yl)ethoxy]phenyl}-6-(4-fluorophenyl)thieno[2,3-d]pyrimidin-4-yl]-2-{[2-(2-methoxyphenyl)pyrimidin-4-yl]methoxy}-D-phenylalanine] was run?
The pKi was 9.52.

How did the pKi turn out when `COc1ccccc1-c1nccc(COc2ccccc2C[C@@H](Nc2ccnc3sc(-c4ccc(F)cc4)c(-c4ccc(OCCN5CCN(C)CC5)c(Cl)c4C)c23)C(=O)O)n1` [Compound 18, N-[3-{3-Chloro-2-methyl-4-[2-(4-methylpiperazin-1-yl)ethoxy]phenyl}-2-(4-fluorophenyl)thieno[2,3-b]pyridin-4-yl]-2-{[2-(2-methoxyphenyl)pyrimidin-4-yl]methoxy}-D-phenylalanine] was run?
Its pKi is 10.00.

How did the pKi turn out when `COc1ccccc1-c1nccc(COc2ccccc2C[C@@H](Oc2cccc3oc(-c4ccc(F)cc4)c(-c4ccc(OCCN5CCN(C)CC5)c(Cl)c4C)c23)C(=O)O)n1` [Compound 21, (2R)-2-{[(3Sa)-3-{3-Chloro-2-methyl-4-[2-(4-methylpiperazin-1-yl)ethoxy]phenyl}-2-(4-fluorophenyl)-1-benzofuran-4-yl]oxy}-3-(2-{[2-(2-methoxyphenyl)pyrimidin-4-yl]methoxy}phenyl)propanoic Acid] was run?
The pKi was 8.89.

test system: NCI-H929 cells; assay: MTT cell viability assay of NCI H929 cell line; type: cell-based; settings: compared to 13

How did the “loss of cellular activity” value turn out when `COc1ccccc1C[C@@H](Oc1cccc2oc(-c3ccc(F)cc3)c(-c3ccc(OCCN4CCN(C)CC4)c(Cl)c3C)c12)C(=O)O` [Compound 14, (2R)-2-{[(3Sa)-3-{3-Chloro-2-methyl-4-[2-(4-methylpiperazin-1-yl)ethoxy]phenyl}-2-(4-fluorophenyl)-1-benzofuran-4-yl]oxy}-3-(2-methoxyphenyl)propanoic Acid] was run?
Its value is “more than 10 fold”.

For `COc1ccccc1C[C@@H](Oc1cccc2cc(-c3ccc(F)cc3)n(-c3ccc(OCCN4CCN(C)CC4)c(Cl)c3C)c12)C(=O)O` [Compound 15, (2R)-2-{[(1Ra)-1-{3-Chloro-2-methyl-4-[2-(4-methylpiperazin-1-yl)ethoxy]phenyl}-2-(4-fluorophenyl)-1H-indol-7-yl]oxy}-3-(2-methoxyphenyl)propanoic Acid], which “loss of cellular activity” value is on record?
The value was “more than 10 fold”.
